Here are results for one molecule from publication PMC12147209 (2025).

The test system of experiment [1] is 5′-AA-3′ (DNA, single strand, 5'-phosphate (discussed as a 5' phosphate group in the modelled structure)) AA. The experiment in a line: Raman spectroscopy of dried mixture (532 nm). The settings on record: no added salt stated; water, dried residue; spermine and dinucleotide at 2:1 molar excess, incubated overnight.
The test system is the same in experiment [2]. The experiment in a line: SERS adsorption isotherm, Hill-Langmuir fit. Conditions: no added salt stated; immobilised compound, apparent; dinucleotide adsorption on spermine-capped gold-silver nanostars; 20 °C; spermine 6.7×10^-5 M; Hill n 1.5.

As to `NCCCNCCCCNCCCN`, the binding result in experiment [1] is “yes”. The K d entry in experiment [2] is “(6.2 ± 0.7) 10^–7 M”.
